Laboratory results: patent publication US9914760B2, “Methods of identifying, isolating and using odorant and aroma receptors” (Firmenich SA, priority 2013, dated 2018)

Legend:
Experiment in all cases: cell-based calcium-flux assay, HEK293T with Gα15
Details in all cases: dose-response curves FIG. 6D-J
OR8S1 = target: T1, OR8S1 (Homo sapiens, UniProt Q8NH09)
T1 construct: expressed in transfected cells
T1 sequence (Q8NH09 1-359): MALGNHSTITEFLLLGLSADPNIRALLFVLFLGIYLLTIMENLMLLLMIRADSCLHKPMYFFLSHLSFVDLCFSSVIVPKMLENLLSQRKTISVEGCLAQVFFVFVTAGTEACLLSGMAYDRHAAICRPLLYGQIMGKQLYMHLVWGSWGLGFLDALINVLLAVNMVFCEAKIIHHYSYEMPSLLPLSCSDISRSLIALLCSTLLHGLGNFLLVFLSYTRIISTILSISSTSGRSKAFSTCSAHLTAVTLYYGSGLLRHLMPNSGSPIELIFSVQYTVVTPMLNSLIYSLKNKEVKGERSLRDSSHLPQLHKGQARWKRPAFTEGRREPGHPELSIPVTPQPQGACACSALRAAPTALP
Text: (§1) The activity of candidate human indole and skatole malodors receptors OR52N2 (SEQ ID NO: 11 and SEQ ID NO: 12), OR11G2 (SEQ ID NO: 13 and SEQ ID NO: 14, OR5AC2 (SEQ ID NO: 75 and SEQ ID NO: 76), OR4C15 (SEQ ID NO: 79 and SEQ ID NO: 80), OR8S1 (SEQ ID NO: 83 and SEQ ID NO: 84), OR11H6 (SEQ ID NO: 15 and SEQ ID NO: 16) and OR11H4 (SEQ ID NO: 49 and SEQ ID NO: 50) and candidate mouse indole and skatole malodors receptors Olfr665 (SEQ ID NO: 9 and SEQ ID NO 10) and Olfr740 (SEQ ID NO: 1 and SEQ ID NO 2) were confirmed in cell-based calcium-flux assays (FIGS. 6A to 6J). Cells stably co-expressing Rho-tagged human OR52N2 (FIG. 6A, B) or OR11G2 (FIG. 6C) and Gα15 (SEQ ID NO: 25) were exposed to increasing concentrations of skatole or indole. FIG. 6B is a repeat experiment showing similar activity of OR52N2 with indole and skatole. Odorant-induced OR52N2 or OR11G2 activity was detected by measuring the maximum Calcium 5 dye (Molecular Devices) fluorescence change following odorant exposure. Activity is defined as the baseline corrected Relative Fluorescent Units (RFU) ratios normalized to the highest RFU in the experiment in FIG. 6A. […] A cell line lacking a receptor, for example hOR52N2, was used as a control for non-specific activity at high concentrations (‘Indole control’ and ‘Skatole control’). The human receptor OR52N2 (SEQ ID NO: 11 and SEQ ID NO: 12) was identified because of its sequence similarity to mouse Olfr665 (SEQ ID NO: 10), an indole/skatole receptor isolated from olfactory neurons responding to both indole and skatole. The human receptor OR11G2 (SEQ ID NO: 13 and SEQ ID NO: 14) was identified because of its sequence similarity to mouse Olfr740 (SEQ ID NO: 2), an indole/skatole receptor isolated from olfactory neurons responding to both indole and skatole. The receptors were modified with the Rho sequence and stably expressed in HEK 293T cells. Further examples show indole and skatole dose-response curves for human receptors OR5AC2, OR4C15, OR8S1, OR11H6, OR11H4 and mouse receptors Olfr665 and Olfr740 (FIG. 6D-J). The human receptor OR5AC2 (SEQ ID NO: 75 and SEQ ID NO: 76) was identified because of its sequence similarity to mouse Olfr207 (SEQ ID NO: 78), a receptor isolated from olfactory neurons responding to both indole and skatole. The human receptor OR4C15 (SEQ ID NO: 79 and SEQ ID NO: 80) was identified because of its sequence similarity to mouse Olfr211 (SEQ ID NO: 82), a receptor isolated from olfactory neurons responding to both indole and skatole. The human receptor OR8S1 (SEQ ID NO: 83 and SEQ ID NO: 84) was identified because of its sequence similarity to mouse Olfr257 (SEQ ID NO: 86), a receptor isolated from olfactory neurons responding to both indole and skatole. The human receptor OR11H6 (SEQ ID NO: 15 and SEQ ID NO: 16) was identified because of its sequence similarity to mouse Olfr745 (SEQ ID NO: 8), a receptor isolated from olfactory neurons responding to both indole and skatole. The human receptor OR11H4 (SEQ ID NO: 49 and SEQ ID NO: 50) was identified because of its sequence similarity to mouse Olfr746 (SEQ ID NO: 38), a receptor isolated from olfactory neurons responding to both indole and skatole. The mouse receptor Olfr665 (SEQ ID NO: 9 and SEQ ID NO: 10) was identified directly from NGS data from isolated olfactory neurons responding to both indole and skatole. The mouse receptor Olfr740 (SEQ ID NO: 1 and SEQ ID NO: 2) was identified directly from NGS data from isolated olfactory neurons responding to both indole and skatole. Co-expression of the human G alpha subunit Gα15 activates the Gq transduction pathway that leads to an internal Ca2+ increase upon binding to the appropriate ligand.

OR4C15 = target: T2, OR4C15 (Homo sapiens, UniProt Q8NGM1)
T2 construct: expressed in transfected cells
Text: as §1

OR11H6 = target: T3, OR11H6 (Homo sapiens, UniProt Q8NGC7)
T3 construct: expressed in transfected cells
T3 sequence (Q8NGC7 1-330): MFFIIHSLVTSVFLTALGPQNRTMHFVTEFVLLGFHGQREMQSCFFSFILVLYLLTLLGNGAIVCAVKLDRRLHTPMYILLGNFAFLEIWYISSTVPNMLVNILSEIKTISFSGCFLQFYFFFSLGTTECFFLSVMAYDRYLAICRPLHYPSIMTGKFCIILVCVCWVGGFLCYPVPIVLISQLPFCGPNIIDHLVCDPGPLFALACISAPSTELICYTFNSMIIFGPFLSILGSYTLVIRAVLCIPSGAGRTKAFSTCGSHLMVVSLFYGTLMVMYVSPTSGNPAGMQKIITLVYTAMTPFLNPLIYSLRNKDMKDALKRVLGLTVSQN
Text: as §1

OR11H4 = target: T4, OR11H4 (Homo sapiens, UniProt Q8NGC9)
T4 construct: expressed in transfected cells
T4 sequence (Q8NGC9 1-324): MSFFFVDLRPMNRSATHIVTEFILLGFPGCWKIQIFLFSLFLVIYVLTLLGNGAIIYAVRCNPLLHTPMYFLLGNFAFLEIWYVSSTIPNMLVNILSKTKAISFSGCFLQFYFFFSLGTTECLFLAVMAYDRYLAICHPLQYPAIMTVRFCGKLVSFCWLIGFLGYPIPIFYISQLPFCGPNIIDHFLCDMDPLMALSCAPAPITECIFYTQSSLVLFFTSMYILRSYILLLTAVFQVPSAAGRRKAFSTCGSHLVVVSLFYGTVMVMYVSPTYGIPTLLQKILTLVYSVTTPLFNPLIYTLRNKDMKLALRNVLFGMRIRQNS
Text: as §1

Measured: receptor response in vitro

T2 sequence (Q8NGM1 with tags, fused parts or gaps): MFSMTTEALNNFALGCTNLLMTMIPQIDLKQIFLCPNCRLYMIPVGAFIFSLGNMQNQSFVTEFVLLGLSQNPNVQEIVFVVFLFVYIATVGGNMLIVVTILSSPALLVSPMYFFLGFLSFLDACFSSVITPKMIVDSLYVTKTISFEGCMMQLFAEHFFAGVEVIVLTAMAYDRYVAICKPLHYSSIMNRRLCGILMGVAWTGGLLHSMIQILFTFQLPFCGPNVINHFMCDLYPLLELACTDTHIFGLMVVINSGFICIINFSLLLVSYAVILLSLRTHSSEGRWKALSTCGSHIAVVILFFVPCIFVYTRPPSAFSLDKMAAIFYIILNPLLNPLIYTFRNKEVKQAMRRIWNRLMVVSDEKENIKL

c1ccc2[nH]ccc2c1 [indole]
responded: all assays above

Cc1c[nH]c2ccccc12 [skatole, 3-methyl indole]
responded: all assays above
